# Measured values reported in PubChem BioAssay (NCI).
#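 Results reflect a 48-hour exposure of cells in 96-well plates to compound at five concentrations. TGI marks complete inhibition of growth.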
# What was measured:
# Test in all cases: NCI tumour cell line growth inhibition, 48 h
# ACHN renal = tested on: ACHN renal
# SR leukemia = tested on: SR leukemia
# OVCAR-4 ovarian = tested on: OVCAR-4 ovarian
# NCI/ADR-RES ovarian = tested on: NCI/ADR-RES ovarian
# SK-OV-3 ovarian = tested on: SK-OV-3 ovarian
# HOP-62 NSCLC = tested on: HOP-62 NSCLC
# MOLT-4 leukemia = tested on: MOLT-4 leukemia
# HT29 colon = tested on: HT29 colon
# HS 578T breast = tested on: HS 578T breast
# HCT-116 colon = tested on: HCT-116 colon
# SK-MEL-5 melanoma = tested on: SK-MEL-5 melanoma
# MDA-MB-231 breast = tested on: MDA-MB-231 breast
# PC-3 prostate = tested on: PC-3 prostate
# IGROV1 ovarian = tested on: IGROV1 ovarian
# HCC-2998 colon = tested on: HCC-2998 colon
# CCRF-CEM leukemia = tested on: CCRF-CEM leukemia
# EKVX NSCLC = tested on: EKVX NSCLC
# U251 CNS = tested on: U251 CNS
# NCI-H522 lung = tested on: NCI-H522 lung
# KM12 colon = tested on: KM12 colon
# SF-539 CNS = tested on: SF-539 CNS
# SN12C renal = tested on: SN12C renal
# TK-10 renal = tested on: TK-10 renal
# RXF 393 renal = tested on: RXF 393 renal
# MDA-N = tested on: MDA-N
# NCI-H226 lung = tested on: NCI-H226 lung
# COLO 205 colon = tested on: COLO 205 colon
# UO-31 renal = tested on: UO-31 renal
# HCT-15 colon = tested on: HCT-15 colon
# NCI-H23 lung = tested on: NCI-H23 lung
# M14 melanoma = tested on: M14 melanoma
# RPMI-8226 leukemia = tested on: RPMI-8226 leukemia
# SNB-19 CNS = tested on: SNB-19 CNS
# OVCAR-3 ovarian = tested on: OVCAR-3 ovarian
# CAKI-1 renal = tested on: CAKI-1 renal
# SNB-75 CNS = tested on: SNB-75 CNS
# T-47D breast = tested on: T-47D breast
# HL-60(TB) leukemia = tested on: HL-60(TB) leukemia
# DU-145 prostate = tested on: DU-145 prostate
# SF-295 CNS = tested on: SF-295 CNS
# BT-549 breast = tested on: BT-549 breast
# UACC-257 melanoma = tested on: UACC-257 melanoma
# MDA-MB-435 = tested on: MDA-MB-435
# K-562 leukemia = tested on: K-562 leukemia
# SF-268 CNS = tested on: SF-268 CNS
# SW-620 colon = tested on: SW-620 colon
# A549 NSCLC = tested on: A549 NSCLC
# UACC-62 melanoma = tested on: UACC-62 melanoma
# MCF7 breast = tested on: MCF7 breast
# OVCAR-8 ovarian = tested on: OVCAR-8 ovarian
# SK-MEL-28 melanoma = tested on: SK-MEL-28 melanoma
# 786-0 renal = tested on: 786-0 renal
# NCI-H460 lung = tested on: NCI-H460 lung
# HOP-92 NSCLC = tested on: HOP-92 NSCLC
# OVCAR-5 ovarian = tested on: OVCAR-5 ovarian
# SK-MEL-2 melanoma = tested on: SK-MEL-2 melanoma
# LOX IMVI melanoma = tested on: LOX IMVI melanoma
# MALME-3M melanoma = tested on: MALME-3M melanoma
smiles,measurement,setting,value
COCCN1C(=O)C2c3[nH]c4ccccc4c3C3CCC(C(C)(C)C)CC3C2C1=O (stereo not given),TGI,ACHN renal,> 10 µM
same,TGI,SR leukemia,27 µM
same,TGI,OVCAR-4 ovarian,36.8 µM
same,TGI,NCI/ADR-RES ovarian,42.6 µM
same,TGI,SK-OV-3 ovarian,42.7 µM
same,TGI,HOP-62 NSCLC,37.4 µM
same,TGI,MOLT-4 leukemia,> 10 µM
same,TGI,HT29 colon,27 µM
same,TGI,HS 578T breast,38.8 µM
same,TGI,HCT-116 colon,29.9 µM
same,TGI,SK-MEL-5 melanoma,30.9 µM
same,TGI,MDA-MB-231 breast,36.9 µM
same,TGI,PC-3 prostate,29.1 µM
same,TGI,IGROV1 ovarian,43.4 µM
same,TGI,HCC-2998 colon,42.9 µM
same,TGI,CCRF-CEM leukemia,87.2 µM
same,TGI,EKVX NSCLC,38.2 µM
same,TGI,U251 CNS,28.9 µM
same,TGI,NCI-H522 lung,35.7 µM
same,TGI,KM12 colon,38.9 µM
same,TGI,SF-539 CNS,35.6 µM
same,TGI,SN12C renal,32.9 µM
same,TGI,TK-10 renal,> 10 µM
same,TGI,RXF 393 renal,43.1 µM
same,TGI,MDA-N,30.1 µM
same,TGI,NCI-H226 lung,39 µM
same,TGI,COLO 205 colon,33.7 µM
same,TGI,UO-31 renal,27.2 µM
same,TGI,HCT-15 colon,36.3 µM
same,TGI,NCI-H23 lung,57.3 µM
same,TGI,M14 melanoma,38.1 µM
same,TGI,RPMI-8226 leukemia,39.5 µM
same,TGI,SNB-19 CNS,44.6 µM
same,TGI,OVCAR-3 ovarian,33.8 µM
same,TGI,CAKI-1 renal,37.6 µM
same,TGI,SNB-75 CNS,35.6 µM
same,TGI,T-47D breast,38.5 µM
same,TGI,HL-60(TB) leukemia,37.6 µM
same,TGI,DU-145 prostate,37.1 µM
same,TGI,SF-295 CNS,34.5 µM
same,TGI,BT-549 breast,35.3 µM
same,TGI,UACC-257 melanoma,31.8 µM
same,TGI,MDA-MB-435,36.9 µM
same,TGI,K-562 leukemia,> 100 µM
same,TGI,SF-268 CNS,37.6 µM
same,TGI,SW-620 colon,35.5 µM
same,TGI,A549 NSCLC,39.5 µM
same,TGI,UACC-62 melanoma,> 10 µM
same,TGI,MCF7 breast,43.3 µM
same,TGI,OVCAR-8 ovarian,46 µM
same,TGI,SK-MEL-28 melanoma,32.3 µM
same,TGI,786-0 renal,31.5 µM
same,TGI,NCI-H460 lung,28 µM
Cc1ccc(S[C@@H](C)[C@@](O)(C(N)=O)c2ccccc2)cc1,TGI,ACHN renal,> 100 µM
same,TGI,OVCAR-4 ovarian,46.3 µM
same,TGI,NCI/ADR-RES ovarian,49.5 µM
same,TGI,HOP-92 NSCLC,37.6 µM
same,TGI,SK-OV-3 ovarian,> 100 µM
same,TGI,HOP-62 NSCLC,62.6 µM
same,TGI,MOLT-4 leukemia,33.3 µM
same,TGI,HT29 colon,> 100 µM
same,TGI,HS 578T breast,> 100 µM
same,TGI,HCT-116 colon,> 100 µM
same,TGI,OVCAR-5 ovarian,> 100 µM
same,TGI,SK-MEL-5 melanoma,81.1 µM
same,TGI,MDA-MB-231 breast,46 µM
same,TGI,PC-3 prostate,> 100 µM
same,TGI,IGROV1 ovarian,15.5 µM
same,TGI,HCC-2998 colon,> 100 µM
same,TGI,CCRF-CEM leukemia,26.2 µM
same,TGI,EKVX NSCLC,> 100 µM
same,TGI,U251 CNS,> 100 µM
same,TGI,NCI-H522 lung,33 µM
same,TGI,KM12 colon,> 100 µM
same,TGI,SF-539 CNS,60.3 µM
same,TGI,SN12C renal,> 100 µM
same,TGI,TK-10 renal,> 100 µM
same,TGI,RXF 393 renal,> 100 µM
same,TGI,MDA-N,> 100 µM
same,TGI,NCI-H226 lung,> 100 µM
same,TGI,COLO 205 colon,> 100 µM
same,TGI,UO-31 renal,30.2 µM
same,TGI,HCT-15 colon,> 100 µM
same,TGI,NCI-H23 lung,> 100 µM
same,TGI,M14 melanoma,> 100 µM
same,TGI,RPMI-8226 leukemia,74.8 µM
same,TGI,SNB-19 CNS,> 100 µM
same,TGI,OVCAR-3 ovarian,> 100 µM
same,TGI,CAKI-1 renal,30.7 µM
same,TGI,SNB-75 CNS,> 100 µM
same,TGI,SK-MEL-2 melanoma,> 100 µM
same,TGI,T-47D breast,> 100 µM
same,TGI,HL-60(TB) leukemia,> 100 µM
same,TGI,DU-145 prostate,> 100 µM
same,TGI,SF-295 CNS,41.9 µM
same,TGI,BT-549 breast,> 100 µM
same,TGI,UACC-257 melanoma,> 100 µM
same,TGI,MDA-MB-435,> 100 µM
same,TGI,K-562 leukemia,44.5 µM
same,TGI,SF-268 CNS,> 100 µM
same,TGI,SW-620 colon,> 100 µM
same,TGI,A549 NSCLC,> 100 µM
same,TGI,UACC-62 melanoma,> 100 µM
same,TGI,MCF7 breast,> 100 µM
same,TGI,OVCAR-8 ovarian,> 100 µM
same,TGI,SK-MEL-28 melanoma,> 100 µM
same,TGI,LOX IMVI melanoma,33.7 µM
same,TGI,786-0 renal,> 100 µM
same,TGI,MALME-3M melanoma,42.8 µM
same,TGI,NCI-H460 lung,> 100 µM
